In US10517952B2, “Nucleophile-triggered degradable materials and methods of making and using the same” (GEORGIA TECH RESEARCH CORPORATION, priority 2014, dated 2019):

Assays:
Assay type in all cases: physicochemical
[1] = Gelation of 4-PEG-SH with OND linkers, gelation time by inversion test
Description: PEG-OND hydrogels were prepared by mixing tetravalent thiol-terminated PEG (4-PEG-SH, Mw˜2,500 Da for each arm) at 3.5 weight percent and multivalent OND linkers at equimolar concentration of thiol and electrophile in phosphate buffer containing 7% DMSO by volume (FIG. 42). The reactions were mixed briefly and the gel was allowed to cure at temperature or 37° C. Gelation time was recorded as the point at which the sample no longer flowed upon inversion of the reaction vessel.
Trial gelations were performed by premixing a solution of linker 7a with four-armed thiol-terminated poly(ethylene glycol) (4-PEG-SH. Mn=10,000) in neutral water containing 17% DMSO by volume. The overall concentration of PEG macromer was varied from 0.4 wt % to 8.3 wt % while maintaining an equimolar ratio of thiol to electrophile. Under these conditions, no gels formed on standing at room temperature for five minutes.
Based on empirical observations made in these trials, subsequent gels were prepared at room temperature from 3.5 wt % 4-PEG-SH solutions in phosphate buffers containing 7% DMSO at equimolar concentrations of thiol and OND electrophile. Mixtures were mixed briefly with a vortex mixer, and the reaction vial was periodically tilted or inverted. Gelation time was recorded when the sample no longer flowed and was self-supporting. […] Gelation time at 37° C. was determined by pre-warming 4-PEG-SH macromer and OND stock solutions in a 37° C. water bath. Gel components were combined and mixed briefly by pipetting, and the sample was held in the water bath. Gelation time was determined by the inversion test, as described above.
The labeled protein solutions prepared as described in the previous section were diluted three-fold with pH 7.4 100 mM phosphate buffer and used to dissolve the 4-PEG-SH macromer at 3.76 wt %. This solution was used in an identical manner as pure 4-PEG-SH solution for the purpose of forming PEG-OND hydrogels (FIG. 45). All samples formed self-supporting hydrogels within 1 min after mixing, as determined by the inversion test.

[2] = Oscillatory rheology of PEG-OND hydrogels
Description: Oscillatory rheology was used to assess the viscoelastic properties of selected PEG-OND hydrogels. […] The truncated cone was then brought in contact with the bis-EONB/4-PEG-SH mixture before setting of the gel by positioning the tool at the measuring position. The sample was inspected for spillovers and trimmed as required. A preliminary preshearing step consisting of 30 seconds at 0.1% strain and ω=0.01 rad/s was performed to ensure good contact with the gel sample. The elastic (storage) and viscous (loss) moduli, G′ and G″, respectively, were then measured as a function of time for a constant strain of 1% and an angular frequency of 1 rad/sec. The ability to store energy is described by G′, while the amount of energy dissipated is related with G″. It was observed that the sample experienced a rapid transformation from an initial state in which G′ was not much larger than G″ to a state in which G′ was clearly predominant, as shown in FIG. 5; this is consistent with gelation. The observed transformation happened in the first few minutes after preparation, even when the hydrogel continued to rigidify for up to 2-3 hours.
The linear regime of this sample was determined by performing an oscillatory strain sweep at 37° C. The frequency sweep shown in the main text was thus performed in the linear region.
[…] In both experiments, G′>>G″.

[3] = Equilibrium swelling, gel fraction and Mc (Flory-Rehner) of PEG-OND hydrogels; conditions: for Mc (apparent molecular weight between elastic crosslinks): calculated with the Flory-Rehner equation from swelling results; for Gel Fraction: mass of dry residue post-swelling/input mass of OND and 4-PEG-SH; for Equilibrium Swelling Ratio: mass post-swelling/mass pre-swelling, deionized water, 4° C., 24 hours, n = 3 gels
Description: The swelling of the PEG-OND hydrogels in deionized water was measured at 4° C. to prevent significant fragmentation during the experiment. […] An independent experiment measuring soluble fraction thiol content yielded results complementing those obtained gravimetrically (Table S3, and related discussion below). With the knowledge that small molecules can readily permeate swollen PEG-OND hydrogels (see below), detecting and modifying residual thiols in gels prepared from divalent linkers 7a and 8 by swelling in the presence of a fluorogenic OND derivative was attempted (FIG. 15, and related discussion below).
200 μL gels were prepared in pH 7.4 100 mM phosphate buffered saline containing 7% DMSO with 3.5 wt % 4-PEG-SH and the corresponding bis-, tris-, and tetra-ONDs to provide a 1:1 thiol to electrophile ratio, and allowed to cure for 20 minutes at room temperature. The mass of the gels after curing was recorded (Meq) before suspending in 5.5 mL of water. The hydrogels were stored at 4° C. during swelling to prevent significant degradation of the network during the experiment. The increase in mass of the gels was monitored periodically by decanting and blotting the gel gently with a kimwipe to remove excess water before weighing. After 24 hours swelling, when swelling had stabilized, the mass of the gel was recorded (Meq). The equilibrium mass swelling ratio was then determined using the following relationship:
After weighing equilibrium-swelled gels to determine equilibrium mass swelling ratio, the gels were freeze-dried and the residual mass was weighed (Mres). It is expected that buffer salts present in the sample when it was formed were removed by the multiple changes of swelling solvent (pure water). The mass of the remaining residue was compared to the input mass (Min) of 4-PEG-SH macromer and OND-based linker. The ratio of the residual mass and the input mass provides the fraction of material by mass incorporated into the hydrogel network (gel fraction), as shown in the following equation: […]
The apparent molecular weight between elastically-productive crosslinks (Mc) was determined from equilibrium swelling data, collected as described in section VII.1 and applying a modified form of the Flory-Rehner equation for networks formed under dilute conditions:
[formula] where Mn is the number average molecular weight for the polymeric macromer (10,000 g/mol), v is the specific volume of the polymer ([…] for PEG) V1 is the molar volume of solvent used for swelling ([…] for water), χ is the polymer-interaction parameter (0.43 for PEG-H2O and assumed constant for the described experiments). V2, and V2, are the volume fraction of polymer in the equilibrium swollen gel and the relaxed gel after curing, respectively, and are calculated as follows:
[formula] where qw is the weight swelling ratio after equilibrium swelling, qF is the weight swelling ratio after curing, ρp is the density of the polymer (1.12 g/cm^3 for PEG), ρwater=ρcure solvent is the density of swelling solvent and solvent during gel formation (1.00 g/cm^3 for water). The weight swelling ratios qw and qF are determined from data gathered in equilibrium swelling experiments using the following relationships:
[formula] where ms is the mass of the gel after equilibrium swelling, mc is the mass of the gel after curing, and md is the mass of the dried gel, or input mass of polymer and crosslinkers.
Using the formulae above, masses of hydrogel samples recorded after equilibrium swelling, curing, and drying were applied to estimate the apparent molecular weight between crosslinks, which are summarized in Table 1 of the main text. The experimentally observed Mc values for gels formed using divalent OND linkers was lower than theoretical ideal value Mc,ideal. This can be explained by the fact that the Mc,ideal values calculated for these gels (entries 1-5 of Table S1) are greater than the entanglement molecular weight for polyethylene glycol (˜4,400 g/mol). […]

[4] = Calculation of hydrogel mesh size from equilibrium swelling data; conditions: equilibrium-swollen gels
Description: Using the calculated molecular weight between crosslinks, Mc, and the method previously described by Canal and Peppas, the hydrogel mesh size was calculated. First, the root-mean-square end-to-end distance of the polymer chains in the network, (r0^2)^1/2, was calculated as follows: (r0^2)^1/2=lCn^1/2n^1/2 (Equation S10) where l is the average bond length in the polymer (0.146 nm for PEG) and Cn is the characteristic ratio of the polymer (4.0 for PEG). The average number of bonds between crosslinks, n is calculated using the following equation:
[formula] where Mc is the average molecular weight between crosslinks, calculated as described in the previous section, and Mr is the molecular weight of the repeating unit for the PEG macromer (44 g/mol). Finally, the mesh size, ξ, is calculated using the following relationship: ξ=v2,s^−1/3(r0^2)^1/2 (Equation S12) where v2, is the partial volume of polymer in the equilibrium swollen hydrogel, and is calculated using the experimentally determined equilibrium weight swelling ratios.

[5] = Erosion of swollen hydrogels (BODIPY erosion probe, time-lapse photography); conditions: 37° C., erosion probe
Text: Degradation behavior of PEG-OND hydrogels under swelling conditions was investigated by labeling 3% of the 4-PEG-SH thiols with a BODIPY fluorophore via maleimide coupling before gelation. Gels prepared from this material are expected to have slightly lower crosslink densities and to degrade sooner when compared to gels formed without the erosion probe (FIG. 19). However, the probe-labeled macromer allowed convenient monitoring and comparison of erosion behavior under conditions relevant for biological applications. An increase in absorbance (504 nm) of the swelling buffer was observed as pieces containing the labeled PEG-thiol components were detached from the gel by rDA fragmentation (FIG. 2). […] Using combinations of linkers, it was possible to produce hydrogels with release profiles tuned between those of gels prepared from a single linker (FIG. 2C).
The 3.76 wt % solution of BODIPY-labeled 4-PEG-SH prepared above was used to form hydrogels using a method identical to unlabeled gels. Briefly, BODIPY-labeled 4-PEG-SH was combined with DMSO stocks of multivalent ONDs at equimolar concentration of thiol and electrophile. […] The absorbance of the supernatant at 504 nm was measured immediately to obtain a baseline measurement (t=0 hours), and the samples were placed into a 37° C. incubator. The absorbance of the swelling supernatant was monitored periodically by removal of 1 mL of buffer into a cuvette and measuring absorbance of the sample at 504 nm. […] This process was repeated for each sample until gel degradation was complete and the absorbance at 504 nm stabilized (100% dye released). In order to estimate the fraction of dye released from the non-degradable gel formed with bi s-EONB 8, a mock endpoint sample consisting of BODIPY-labeled 4-PEG-SH diluted to 3.5 wt % was prepared, and the absorbance at 504 nm was measured. […] The absorbance values collected over the course of the experiment were divided by the absorbance value measured after gel disintegration to obtain fractional dye release versus time. […]
The time at which the glass bead reached the bottom of the tube was recorded. […]

SMILES	Gelation time ([1]; buffer pH 8.0, room temperature) [min]	Gel formation ([1]; pH 6.5-7.4)	Gel formation ([1]; pH 7.4)	Gel stability ([2]; gel formed at pH 8.0, 4° C.)	Time to revert to the liquid state (crossover of G′ and G″) ([2]; gel formed at pH 8.0, room temperature) [min]	Storage modulus G′ versus loss modulus G″ ([2]; pH 8.0, 4° C., strain and frequency sweeps)	Mc (apparent molecular weight between elastic crosslinks) [3] [g/mol]	Gel Fraction [3]	Equilibrium Swelling Ratio [3]	Calculated mesh size [4] [nm]	Gel stability under swelling conditions compared with gels from divalent ONDs [5]
COC(=O)C1=C(C(=O)OC)C2(CNC(=O)CCCC(=O)NCC34C=CC(C)(O3)C(C(=O)OC)=C4C(=O)OC)C=CC1(C)O2 [Linker 7c, Tetramethyl 4,4′-((glutaroylbis(azanediyl))bis(methylene))bis(1-methyl-7-oxabicy-clo[2.2.1]hepta-2,5-diene-2,3-dicarboxylate)]	≤ 1.5	formed only viscous solutions	did not form self-supporting gels	fairly stable	≤ 30	G′>>G″					
COC(=O)C1=C(C(=O)OC)C2(CNC(=O)CC(O)(CC(=O)NCC34C=CC(O3)C(C(=O)OC)=C4C(=O)OC)C(=O)NCC34C=CC(O3)C(C(=O)OC)=C4C(=O)OC)C=CC1O2 (stereo not shown) [Linker 11, Tetramethyl 1,1′-(((2-(2-(((2,3-bis(methoxycarbonyl)-7-oxabicyclo[2.2.1]hepta-2,5-dien-1-yl)methyl)amino)-2-oxoethyl)-2-hydroxysuccinyl)bis(azanediyl))bis (methylene))bis(7′-oxabicyclo[2.2.1]hepta-2,5-diene-2,3-dicarboxylate)]							3846 ± 102	0.98 ± 0.08	1.54 ± 0.07	13.7 ± 1.3	more stable gels
COC(=O)C1=C(C(=O)OC)C2(CNC(=O)CCOCC(COCCC(=O)NCC34C=CC(O3)C(C(=O)OC)=C4C(=O)OC)(COCCC(=O)NCC34C=CC(O3)C(C(=O)OC)=C4C(=O)OC)COCCC(=O)NCC34C=CC(O3)C(C(=O)OC)=C4C(=O)OC)C=CC1O2 (stereo not shown) [Linker 12, Tetramethyl 1,1′-(8,8-bis((3-(((2,3-bis(methoxycarbonyl)-7-oxabicyclo[2.2.1]hepta-2,5-dien-1-yl)methyl)amino)-3-oxopropoxy)methyl)-3,13-dioxo-6,10-dioxa-2,14-diazapentadecane-1,15-diyl)bis(7-oxabicyclo[2.2.1]hepta-2,5-diene-2,3-dicarboxylate)]							3740 ± 95	0.96 ± 0.05	1.44 ± 0.08	13.3 ± 0.9	more stable gels
